Test results as given in patent publication US12012404B2, “Pyrimidoheterocyclic compounds and application thereof” (D3 BIO (WUXI) CO., LTD., priority 2020, dated 2024).
Where a name gives a salt, the structure may show the parent alone.

Tests used:
[1] = system: KRAS^G12C-mutated H358 cells; test: H358 cell assay: inhibition of proliferation (CellTiter-Glo, 5 days); assay type: cell-based; settings: NCI-H358 cells, 5 days incubation
Experimental: Compounds were assayed for IC50 of inhibition of proliferation of KRAS^G12C-mutated H358 cells.
The main instrument used in this assay was a Nivo multi-label analyzer (PerkinElmer).
2.4 Method of the Assay: • 1) NCI-H358 cells were inoculated in a white 96-well plate, and each well contained 80 μL of cell suspension and 4000 NCI-H358 cells. […] The assay was carried out in duplicate. 78 μL of medium was added to the intermediate plate, and then 2 μL of the serially diluted compound was transferred to each well of the intermediate plate according to the corresponding position. After mixing well, 20 μL per well was transferred to the cell plate. […] The cell plate was incubated in a carbon dioxide incubator for 5 days. Another cell plate was prepared, and the signal value of the cell plate was read on the day of compound addition as the maximum value (Max value in the equation below) to participate in data analysis. 25 μL of cell viability chemiluminescence detection reagent was added to each well of the cell plate, and the plate was incubated at room temperature for 10 minutes to stabilize the luminescence signal. A multi-label analyzer was used for reading the plate. • 3) […]

[2] = system: KRAS^G12C-mutated MIA-PA-CA-2 cells; test: Inhibition of proliferation of KRAS^G12C-mutated MIA-PA-CA-2 cells (CellTiter-Glo, 72 h); assay type: cell-based, human
Experimental: Compounds were assayed for IC50 of inhibition of proliferation of KRAS^G12C-mutated MIA-PA-CA-2 cells.
The main reagent used in this assay included CellTiter-Glo (Promega, Cat. No. G7573).
The main instrument used in this assay was PerkinElmer EnVision multi-function microplate reader.
1.4 Method of the Assay • 1) Adherent cells were digested with trypsin to form a cell suspension, and the cell suspension was counted for later use. • 2) An appropriate amount of cells was added into a centrifuge tube, and a cell culture medium was added to make up the required volume; then the cells were plated to a 96-well plate at a final density of 2000 cells/well, 100 μL of culture medium. • 3) After incubating for 24 hr, the compound was formulated to 10 mM with DMSO, and serially diluted 3-fold with DPBS (Dulbecco's Phosphate Buffered Saline) to 9 points; 10 μL was added to each well in duplicate. 10 μL of DPBS per well was added to the assay control wells (Con). • 4) On the same day, 50 μL of CellTiter Glo was added to another cell culture plate without compounds, and the fluorescence value was read by EnVision. […] The fluorescence value was read by EnVision. • 6) Data analysis: The inhibition rate of cells in each well was calculated according to the following equation: […]

Row | Structure (SMILES) | IC50 [1] [nM] | IC50 ([2]; 72 h incubation) [nM] | IC50 ([1]; Homo sapiens, 120 h) [nM] | IC50 ([2]; Homo sapiens, MIA PaCa-2, 72 h incubation) [nM]
1 | C=CC(=O)N1CCN(c2nc(OCC3CCCN3C)nc3c2CNC(c2c(Cl)c(C)cc4[nH]ncc24)C3)CC1CC#N (single isomer, unassigned) [4B hydrochloride] | 27 |  |  | 
2 | C=C(F)C(=O)N1CCN(c2nc(OCC3CCCN3C)nc3c2COC(c2c(F)c(N)cc(C)c2C(F)(F)F)C3)CC1CC#N (single isomer, unassigned) [8B hydrochloride] | < 4.6 | 2.7 |  | 
3 | C=CC(=O)N1CCN(c2nc(OCC3CCCN3C)nc3c2COC(c2c(Cl)c(C)cc4[nH]ncc24)C3)CC1CC#N (single isomer, unassigned) [Compound 5B] | 12.9 |  |  | 
4 | C=CC(=O)N1CCN(c2nc(OCC3CCCN3C)nc3c2CN(C)C(c2c(Cl)c(C)cc4[nH]ncc24)C3)CC1CC#N (single isomer, unassigned) [Compound 6A] | < 4.6 |  |  | 
5 | C=CC(=O)N1CCN(c2nc(OCC3CC(F)CN3C)nc3c2COC(c2c(F)c(N)cc(C)c2C(F)(F)F)C3)C(C)C1 (single isomer, unassigned) [Compound 9B] | 5.5 | 6.98 |  | 
6 | C=CC(=O)N1CCN(c2nc(OCC3CCCN3C)nc3c2COC(c2c(F)c(N)cc(C)c2C(F)(F)F)C3)C(C)C1 (single isomer, unassigned) [Compound 18B] | 4.7 | 3.29 |  | 
7 | C=CC(=O)N1CCN(c2nc(OC[C@@H]3CCCN3C)nc3c2CN(C)C(c2cccc4ccccc24)C3)C[C@@H]1CC#N (some centres unmarked) [Compound 1] | 68.2 | 5.21 |  | 
8 | C=CC(=O)N1CCN(c2nc(OC[C@@H]3CCCN3C)nc3c2COC(c2cccc4cccc(Cl)c24)C3)C[C@@H]1CC#N (some centres unmarked) [Compound 2] | 19 |  |  | 
9 | C=CC(=O)N1CCN(c2nc(OC[C@@H]3CCCN3C)nc3c2COC(c2c(F)c(N)cc(C)c2C(F)(F)F)C3)C[C@@H]1C (some centres unmarked) [Compound 10] |  |  | 70 | 
10 | C=CC(=O)N1C[C@H](C)N(c2nc(OC[C@@H]3CCCN3C)nc3c2COC(c2c(F)c(N)cc(C)c2C(F)(F)F)C3)C[C@H]1C (some centres unmarked) [Compound 11] | 6.7 |  |  | 
11 | C=CC(=O)N1CCN(c2nc(OCC34CCCN3CCC4)nc3c2COC(c2c(F)c(N)cc(C)c2C(F)(F)F)C3)C(C)C1 (centres unmarked) [Compound 12] | 2.5 | 1.3 |  | 
12 | C=CC(=O)N1CCN(c2nc(OC[C@@H]3CCCN3C)nc3c2COC(c2c(F)c(N)cc(C)c2C(F)(F)F)C3)[C@H](C)C1 (some centres unmarked) [Compound 13] |  |  | 32.6 | 
13 | C=CC(=O)N1CCN(c2nc(OC[C@@H]3CCCN3C)nc3c2COC(c2c(F)c(N)cc(C)c2C(F)(F)F)C3)C[C@H]1C (some centres unmarked) [Compound 15] |  |  | 9.2 | 
14 | C=C(F)C(=O)N1CCN(c2nc(OCC34CCCN3CCC4)nc3c2COC(c2c(F)c(N)cc(C)c2C(F)(F)F)C3)C[C@@H]1CC#N (some centres unmarked) [Compound 16] |  |  | 1.7 | 2.22
